The source of these data is publication PMC11352945, “Anticancer Activity of Benzo[a]phenoxazine Compounds Promoting Lysosomal Dysfunction” (Cells, 2024).

For test [1], the system named is RKO cells. As to the kind of experiment: Lysosomal membrane permeabilization (acridine orange, flow cytometry), RKO. Format: cell-based, human. To be noted: 4 × IC50, 48 h. As for the experimental part: RKO and MCF7 lysosomal membrane permeabilization (LMP) was evaluated through flow cytometry using the Acridine Orange (A.O) probe. RKO and MCF7 cells were seeded in 12-well plates at a density of 1 × 10^5 cells/mL. After 24 h, the cells were treated with the compounds C9, A36, and A42 at 2 × IC50 and 4 × IC50 concentrations or 0.1% DMSO (vehicle). As a control, untreated cells were employed. Following a 48 h period, the adherent and floating cells were collected and subjected to a 15-min dark incubation period at 37 °C with 1 μM A.O. After that, the samples were examined by flow cytometry using the PC5.5 channel.
Following the information obtained with the lead compound and considering the microscopic observations made with these new compounds, we next investigated whether their toxicity was also associated with lysosome targeting. To this end, we evaluated the induction of lysosomal membrane permeabilization (LMP) by flow cytometry, using acridine orange (AO) as probe. This probe allows for an assessment of permeabilization, as its fluorescence decreases upon the release of lysosomal protons. […] The cells that presented decreased AO fluorescence were considered to have permeabilized lysosomes.
(Flow cytometry measures light scatter and fluorescence of single cells or particles in a stream.)

A further test concerns SW480 cells. Nature of the test: Sulforhodamine B (SRB) cell viability assay, SW480. Format: cell-based. The note with it: Homo sapiens, CRC cell line, 48 h, read-out: IC50 (μM) ± SD, SW480. As for the experimental part: (§1) The cells were allowed to adhere overnight, from 12 h to 18 h, and then treated with increasing concentrations of each compound, C9, A36, and A42 (0.125 μM, 0.25 μM, 0.5 μM, 1 μM, 2.5 μM, and 5 μM), in their respective culture mediums for 48 h. In addition to a negative control that consisted only of cells and growth medium, a negative control containing the highest concentration of the solvent in which the compound was dissolved (DMSO 0.1%) was also used. The SRB assay was performed according to Marques et al.. The IC50 values were obtained using GraphPad Prism version 8.2.1 through the application of a sigmoidal dose–response nonlinear regression, after logarithmic transformation. The selectivity index was determined by dividing the IC50 value of the non-neoplastic BJ-5ta cell line by the IC50 value of the cancer cell lines (IC50 BJ-5ta/IC50 cancer cell line); furthermore, for the CRC model, a second selectivity index was also determined using the non-neoplastic NCM460 cell line (IC50 NCM460/IC50 CRC cell line). According to the results of the selectivity index, the cell line with the highest selectivity value for each of the models, CRC and breast, was selected for subsequent characterization.
(§2) Three CRC-derived cell lines, SW480 (KRAS^G12V), HCT116 (KRAS^G13D), and RKO (BRAF^V600E), harboring somatic mutations on KRAS or BRAF, and two breast-cancer-derived cell lines, MDA-MB-231 (basal like) and MCF7 (luminal A subtype), together with two non-neoplastic cell lines, NCM460 (normal colon mucosal epithelial cell line) and BJ-5ta (normal foreskin fibroblast cell line), were used to study the activity and selectivity of the three new benzo[a]phenoxazine compounds, C9, A36, and A42. All cell lines were treated with a range of drug concentrations (0.125 μM, 0.25 μM, 0.5 μM, 1 μM, 2.5 μM, and 5 μM) for 48 h, and the effect on cell viability was assessed using a sulforhodamine B assay (SRB) (Figure 2). […] In addition, the selectivity index was determined using the BJ-5ta cell line as a reference, as well as the NCM460 cell line for the CRC model (Table 1).

Test [2] has as its system RKO cells. As to the kind of experiment: Annexin V/PI assay (flow cytometry), RKO. To be noted: 2 × IC50 and 4 × IC50, 48 h. Format: cell-based, human. As for the experimental part: RKO and MCF7 cells were seeded in 12-well plates at a density of 1 × 10^5 cells/mL. After 24 h, the cells were treated with C9, A36, and A42 at 2 × IC50 and 4 × IC50 concentrations or 0.1% DMSO (vehicle). Untreated cells were used as controls. After 48 h, floating and adherent cells were collected. The cells were resuspended in […] of binding buffer and treated for 15 min in the dark with 5 μL of Annexin V-FITC (Detection Kit-ab14085) and 5 μL of Propidium Iodide (50 μg/mL). The samples were subjected to flow cytometry analysis, PI fluorescence was detected using the ECD-A channel, and Annexin V fluorescence was detected using the FITC-A channel.
One of the main goals of clinical oncology is the development of compounds and treatments capable of selectively eliminating cancer cells. In this sense, we next evaluated the capability of the compounds to induce cell death in both cell lines. For this, we performed a flow cytometry analysis using annexin V-FITC and propidium iodide PI double staining. The conjugation of these two probes allowed for the discrimination of viable (negative for both), early apoptotic (annexin + and PI−), late apoptotic (annexin+ and PI+), and necrotic (annexin− and PI+) cells. […] Both flouting and attached cells were harvested and double stained.

Another test has as its system NCM460 cells. Nature of the test: Sulforhodamine B (SRB) cell viability assay, NCM460. The format is cell-based. To be noted: Homo sapiens, non-neoplastic cell line, 48 h, read-out: IC50 (μM) ± SD, NCM460. As for the experimental part: as §1, §2
The test system of test [3] is RKO cells. As to the kind of experiment: Sulforhodamine B (SRB) cell viability assay, RKO. Format: cell-based. To be noted: Homo sapiens, CRC cell line, 48 h, read-out: IC50 (μM) ± SD, RKO. As for the experimental part:
as §1, §2

The subject of another test is MCF7 cells. Nature of the test: Wound healing assay, MCF7. Format: cell-based, human. To be noted: MCF7, IC50 and 2 × IC50, 12 h (controls approximately 12.5%). As for the experimental part: RKO and MCF7 cells were seeded in 12-well plates at densities of 5 × 10^5 cells/mL and 4.5 × 10^5 cells/mL, respectively. After 24 h, a wound was created by scraping the cell layer using a 1 mm pipette tip. The cells were treated with C9, A36, and A42 at IC50 and 2 × IC50 concentrations or 0.1% DMSO (vehicle). Untreated cells were used as controls. The wound regions were photographed at 0 and 12 h, and migration was assessed using the Image J software. The relative migration was calculated in relation to the untreated controls.

One may read the IC50 as the midpoint of a concentration-inhibition curve.

As for `CCCNc1cc2oc3cc(=NCC)c(C)cc-3nc2c2ccccc12` [C9], the “Percentage of cells with LMP (permeabilized lysosomes)” value in the test on RKO cells [1] is “more than 80%”. The half-maximal inhibitory concentration (IC50) was determined as 0.78 ± 0.09 µM in the test on SW480 cells, 1.12 ± 0.13 µM in the test with NCM460 cells and 0.17 ± 0.01 µM in the test on RKO cells [3]. Also, the “Cell death induction (Annexin V/PI)” value in the test with RKO cells [2] is on record as “most powerful compounds”. Moreover, the “Effect on cell migration (wound closure)” value with MCF7 cells is listed as “more pronounced effect”.
